{"source": "PubChem BioAssay AID1259409", "about": "(Chemical Carcinogenesis Research Information System (CCRIS), 2018)", "origin": "cited, not measured here", "system": "rodent chemically induced tumor inhibition, incidence and multiplicity", "experiment": "CCRIS tumor inhibitor studies", "note": "Values joined by “and” are separate entries in the source; they are usually repeats but may differ in a detail not shown here. Equal entries are not always repeated."}
{"compound": "O=C(O)/C=C/c1ccccc1O", "values": [{"measurement": "tumour outcome (control, treated, inhibition, significance)", "setting": "Carcinogen: BENZO[A]PYRENE, 50-32-8, Dose [Inhibitor]: 0.03 MMOL/G OF DIET DAILY STARTING 7 D BEFORE AND CONTINUING THROUGH 3 D AFTER CARCINOGEN TREATMENT FOLLOWED BY OBSERVAT, Route [Inhibitor]: ORAL, Species: MOUSE, Strain/Sex: ICR/FEMALE, Target Tissue: Type of Lesion: FORESTOMACH: NEOPLASM, Dose [Carcinogen]: 1 MG IN 0.2 ML CORN OIL 2/WK FOR 4 WK, Promoter: NONE USED", "value": "100%, 100%, 0%, not significant"}, {"measurement": "tumour outcome (control, treated, inhibition, significance)", "setting": "Carcinogen: BENZO[A]PYRENE, 50-32-8, Dose [Inhibitor]: 0.06 MMOL/G OF DIET DAILY STARTING 7 D BEFORE AND CONTINUING THROUGH 3 D AFTER CARCINOGEN TREATMENT FOLLOWED BY OBSERVAT, Route [Inhibitor]: ORAL, Species: MOUSE, Strain/Sex: ICR/FEMALE, Target Tissue: Type of Lesion: FORESTOMACH: NEOPLASM, Dose [Carcinogen]: 1 MG IN 0.2 ML CORN OIL 2/WK FOR 4 WK, Promoter: NONE USED", "value": "100%, 84%, 16%, not significant and 97%, 89%, 8%, not significant and 100%, 82%, 18%, not significant"}]}
{"compound": "O=C1CC[C@@]2(O)[C@H]3Cc4ccc(O)c5c4[C@@]2(CCN3CC2CC2)[C@H]1O5", "values": [{"measurement": "tumour outcome (control, treated, inhibition, significance)", "setting": "Carcinogen: 7,12-DIMETHYLBENZ[A]ANTHRACENE, 57-97-6, Dose [Inhibitor]: 0, 75 MG/KG DIET FOR 20 D BEGINNING 10 D PRIOR TO CARCINOGEN DOSE (STUDY DURATION: 130 D), Route [Inhibitor]: ORAL, Species: RAT, Strain/Sex: SPRAGUE-DAWLEY/FEMALE, Target Tissue: Type of Lesion: MAMMARY GLAND: TUMOR, Dose [Carcinogen]: 15 MG IN 0.1 ML OF SESAME OIL ONCE, Promoter: NONE USED", "value": "100%, 73%, 27%, not significant"}, {"measurement": "tumour outcome (control, treated, inhibition, significance)", "setting": "Carcinogen: 7,12-DIMETHYLBENZ[A]ANTHRACENE, 57-97-6, Dose [Inhibitor]: 0, 75 MG/KG DIET FOR 109 D BEGINNING 11 D POST CARCINOGEN DOSE (STUDY DURATION: 130 D), Route [Inhibitor]: ORAL, Species: RAT, Strain/Sex: SPRAGUE-DAWLEY/FEMALE, Target Tissue: Type of Lesion: MAMMARY GLAND: TUMOR, Dose [Carcinogen]: 15 MG IN 0.1 ML OF SESAME OIL ONCE, Promoter: NONE USED", "value": "92%, 36%, 61%, p=0.0024"}, {"measurement": "tumour outcome (control, treated, inhibition, significance)", "setting": "Carcinogen: 7,12-DIMETHYLBENZ[A]ANTHRACENE, 57-97-6, Dose [Inhibitor]: 0, 75 MG/KG DIET FOR 130 D BEGINNING 10 D PRIOR TO CARCINOGEN DOSE (STUDY DURATION: 130 D), Route [Inhibitor]: ORAL, Species: RAT, Strain/Sex: SPRAGUE-DAWLEY/FEMALE, Target Tissue: Type of Lesion: MAMMARY GLAND: TUMOR, Dose [Carcinogen]: 15 MG IN 0.1 ML OF SESAME OIL ONCE, Promoter: NONE USED", "value": "83%, 46%, 45%, p=0.053"}, {"measurement": "tumour outcome (control, treated, inhibition, significance)", "setting": "Carcinogen: DIMETHYLBENZ[A]ANTHRACENE, 57-97-6, Dose [Inhibitor]: 0, 1 MG/KG/D ADMINISTERED TO RESTRAINT-STRESSED RATS BEGINNING 2 DAYS POST CARCINOGEN DOSE AND CONTINUING FOR 18 WK (STU, Route [Inhibitor]: INTRAPERITONEAL, Species: RAT, Strain/Sex: F344/FEMALE, Target Tissue: Type of Lesion: MAMMARY GLAND: TUMOR, Dose [Carcinogen]: 15 MG/ML SESAME OIL ONCE, Promoter: NONE USED", "value": "32%, 12%, 63%, not calculated"}, {"measurement": "tumour outcome (control, treated, inhibition, significance)", "setting": "Carcinogen: DIMETHYLBENZ[A]ANTHRACENE, 57-97-6, Dose [Inhibitor]: 0, 1 MG/KG/D BEGINNING 2 DAYS POST CARCINOGEN DOSE AND CONTINUING FOR 18 WK (STUDY DURATION: 18 WK), Route [Inhibitor]: INTRAPERITONEAL, Species: RAT, Strain/Sex: F344/FEMALE, Target Tissue: Type of Lesion: MAMMARY GLAND: TUMOR, Dose [Carcinogen]: 15 MG/ML SESAME OIL ONCE, Promoter: NONE USED", "value": "27%, 15%, 44%, not calculated"}]}
{"compound": "C#C[C@]1(O)CC[C@H]2[C@@H]3CCC4=Cc5oncc5C[C@]4(C)[C@H]3CC[C@@]21C", "values": [{"measurement": "tumour outcome (control, treated, inhibition, significance)", "setting": "Carcinogen: 7,12-DIMETHYLBENZ[A]ANTHRACENE, 57-97-6, Dose [Inhibitor]: 0, 2 MG 6 D/WK FOR 169 D BEGINNING 5 D POST CARCINOGEN DOSE (STUDY DURATION: 174 D), Route [Inhibitor]: SUBCUTANEOUS, Species: RAT, Strain/Sex: SPRAGUE-DAWLEY/FEMALE, Target Tissue: Type of Lesion: MAMMARY GLAND: MALIGNANT TUMORS, Dose [Carcinogen]: 20 MG IN 1 ML SESAME OIL ONCE, Promoter: NONE USED", "value": "91%, 67%, 26%, p<0.05"}]}
{"compound": "S=C=NC(Cc1ccccc1)c1ccccc1", "note": "(configuration not stated)", "values": [{"measurement": "tumour outcome (control, treated, inhibition, significance)", "setting": "Carcinogen: 4-(METHYLNITROSAMINO)-1-(3-PYRIDYL)-1-BUTANONE, 64091-91-4, Dose [Inhibitor]: 0, 1 UMOL ONCE 2 HR PRIOR TO CARCINOGEN DOSE (STUDY DURATION: 16 WK), Route [Inhibitor]: GAVAGE, Species: MOUSE, Strain/Sex: STRAIN-A/FEMALE, Target Tissue: Type of Lesion: LUNG: ADENOMA, Dose [Carcinogen]: 10 UMOL IN 0.1 ML SALINE ONCE, Promoter: NONE USED", "value": "100%, 60%, 40%, p<0.05"}, {"measurement": "tumour outcome (control, treated, inhibition, significance)", "setting": "Carcinogen: 4-(METHYLNITROSAMINO)-1-(3-PYRIDYL)-1-BUTANONE, 64091-91-4, Dose [Inhibitor]: 0, 5 UMOL ONCE 2 HR PRIOR TO CARCINOGEN DOSE (STUDY DURATION: 16 WK), Route [Inhibitor]: GAVAGE, Species: MOUSE, Strain/Sex: STRAIN-A/FEMALE, Target Tissue: Type of Lesion: LUNG: ADENOMA, Dose [Carcinogen]: 10 UMOL IN 0.1 ML SALINE ONCE, Promoter: NONE USED", "value": "100%, 45%, 55%, p<0.05"}]}
{"compound": "C[C@@H](O)[C@@H]1NC(=O)[C@H](CCCCN)NC(=O)[C@@H](Cc2c[nH]c3ccccc23)NC(=O)[C@H](Cc2ccccc2)NC(=O)[C@@H](NC(=O)[C@H](N)Cc2ccccc2)CSSC[C@@H](C(=O)N[C@H](CO)[C@@H](C)O)NC1=O", "values": [{"measurement": "tumour outcome (control, treated, inhibition, significance)", "setting": "Carcinogen: N-NITROSOBIS(2-OXOPROPYL)AMINE [60599-38-4], Dose [Inhibitor]: 0, 3 UG/KG/D FOR 4 WK BEGINNING 1 WK PRIOR TO FIRST CARCINOGEN (STUDY DURATION: 40 WK), Route [Inhibitor]: SUBCUTANEOUSLY IMPLANTED OSMOTIC PUMP, Species: HAMSTER, Strain/Sex: SYRIAN/FEMALE, Target Tissue: Type of Lesion: PANCREAS: ADENOCARCINOMA, Dose [Carcinogen]: 10 MG/KG BW ONCE/WK FOR 3 WK (STUDY DURATION: 40 WK), Promoter: NONE", "value": "8/18 (44%), 11/20 (55%), -25%, not significant"}, {"measurement": "tumour outcome (control, treated, inhibition, significance)", "setting": "Carcinogen: N-NITROSOBIS(2-OXOPROPYL)AMINE [60599-38-4], Dose [Inhibitor]: 0, 6 UG/KG/D FOR 4 WK BEGINNING 1 WK PRIOR TO FIRST CARCINOGEN (STUDY DURATION: 40 WK), Route [Inhibitor]: SUBCUTANEOUSLY IMPLANTED OSMOTIC PUMP, Species: HAMSTER, Strain/Sex: SYRIAN/FEMALE, Target Tissue: Type of Lesion: PANCREAS: ADENOCARCINOMA, Dose [Carcinogen]: 10 MG/KG BW ONCE/WK FOR 3 WK (STUDY DURATION: 40 WK), Promoter: NONE", "value": "8/18 (44%), 9/20 (45%), -2%, not significant"}]}
